Read-outs that look alike come from different tables or passages of the source.
Assays:
[1] = test system: HER2+ metastatic breast cancer patients refractory to trastuzumab; design: method as in PMID 22689807; conditions: phase 3 trial, 296 patients, no chemotherapy ref 21; cited from earlier work
[2] = test system: patients with HER2+ solid tumors; conditions: in combination with trastuzumab, true MTD not established
Protocol: This phase 1, multicenter, open-label, nonrandomized, dose-defining study was conducted in accordance with the Declaration of Helsinki and the International Conference on Harmonisation Good Clinical Practice Guidelines, and was approved by relevant regulatory and independent ethics committees including Memorial Sloan-Kettering Cancer Center’s Institutional Review Board, Mofftt Cancer Center’s Quorum Review Institutional Review Board, and The National Research Ethics Service, The Royal Marsden Research Ethics Committee. Patients provided written consent prior to enrolling in the trial. […] Dose finding was based on toxicity probability intervals. In brief, three patients were first dosed at each level and advanced according to the toxicity probability interval; up to another 10 patients (total of 13 patients at a dose level) could be assigned to one dose, in which case up to four DLT events in the dose level of 13 patients would be considered tolerable. […] Correlation of antitumor activity with PI3K pathway activation events (that is, circulating tumor DNA and mutations) was an exploratory objective of this trial.
Patients were evaluated at baseline and throughout the course of the study using physical examinations, vital signs, ophthalmologic examinations, 12-lead electrocardiogram cardiac monitoring, laboratory tests, and Eastern Cooperative Oncology Group performance status.

[3] = test system: patients with solid tumors; design: method as in PMID 22025163; conditions: cited from earlier work
[4] = Plasma pharmacokinetics of MK-2206 given with trastuzumab; conditions: for Tmax: human, plasma, oral
[5] = test system: HER3; design: method as in PMID 21215704; conditions: via feedback mechanisms ref 11; cited from earlier work
[6] = test system: recombinant human AKT1, AKT2 and AKT3; conditions: cited from earlier work
[7] = prior phase 1 studies ref 13; cited from earlier work
[8] = test system: cytochrome p450 3A4; conditions: cited from earlier work
[9] = human, in vivo

| SMILES | median progression-free survival [1] | maximum tolerated dose (MTD) ([2]; QOD schedule) | maximum tolerated dose (MTD) ([2]; QW schedule) | most significant dose-limiting toxicity (DLT) ([3]; monotherapy ref 13) | maximum tolerable dose (MTD) ([3]; monotherapy, QOD ref 13) | maximum tolerable dose (MTD), expected ([3]; monotherapy, QW, not established due to early discontinuation ref 13) | patients with trough level at or above the clinical monotherapy efficacy trough target of 56.8 nM ([4]; 45 mg or 60 mg QOD with trastuzumab) | geometric mean ratio of Cmax (last dose/first dose) ([4]; 200 mg QW, multiple dosing for 21 to 22 days) | Tmax [4] | Tmax ([4]; median time to maximum concentration, 135 mg and 200 mg QW with trastuzumab) | effect on HER3 [5] | off-target kinase activity [6] | relative potency against AKT isoforms ([6]; recombinant human isoforms ref 12) | dose proportionality [7] | metabolizing enzyme [8] | patients achieving the 48-hour target of at least 56.8 nM [9] |
| --- | --- | --- | --- | --- | --- | --- | --- | --- | --- | --- | --- | --- | --- | --- | --- | --- |
| CS(=O)(=O)CCNCc1ccc(-c2ccc3ncnc(Nc4ccc(OCc5cccc(F)c5)c(Cl)c4)c3c2)o1 [lapatinib] | 8.1 weeks |  |  |  |  |  |  |  |  |  |  |  |  |  |  |  |
| NC1(c2ccc(-c3nc4ccn5c(=O)[nH]nc5c4cc3-c3ccccc3)cc2)CCC1 [MK-2206] |  | 60 mg | 135 mg | rash | 60 mg | less than 250 mg | 11/11 | 1.30 | 4 to 6 h | 4 to 8 h | upregulate HER3 | little off-target kinase activities | higher potency against recombinant human AKT1 and AKT2 isoforms than AKT3 | no substantial departure from dose proportionality | metabolized by cytochrome p450 3A4 | ~ 92% |

Reference: article PMC3979046 (Breast Cancer Research : BCR, 2013)
